Assay results published in patent publication US6403831B1, “Substituted benzylidene indenyl formamides, acetamides and propionamides” (Cell Pathways, Inc., priority 1996, dated 2002).
Marks after values point to notes of the source that are not given here.

Assays:
[1] = system: human colon carcinoma cell line, SW-480; assay: Growth inhibition, Sulforhodamine B (SRB) protein binding assay; format: cell-based; conditions: SW-480 cell line, six days continuous exposure
Outline: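 SW-480 cells at 1000 cells/well exposed continuously to compound for six days in RPMI with 5% FCS, 0.1% DMSO vehicle. Growth measured by sulforhodamine B staining and optical density relative to controls; IC50 read graphically from mean values, three wells per concentration.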

COX I = target: T1, COX I (Ovis aries, UniProt P05979); assay: Cyclooxygenase (COX) inhibition, purified COX; format: biochemical; conditions: purified COX from ram seminal vesicles; for COX I % Inhibition (100 μM): 100 μM test compound, arachidonic acid 100 μM
T1 construct: The COX was purified form ram seminal vesicles; from tissue; host or cells: ram seminal vesicles
T1 sequence (P05979 25-600): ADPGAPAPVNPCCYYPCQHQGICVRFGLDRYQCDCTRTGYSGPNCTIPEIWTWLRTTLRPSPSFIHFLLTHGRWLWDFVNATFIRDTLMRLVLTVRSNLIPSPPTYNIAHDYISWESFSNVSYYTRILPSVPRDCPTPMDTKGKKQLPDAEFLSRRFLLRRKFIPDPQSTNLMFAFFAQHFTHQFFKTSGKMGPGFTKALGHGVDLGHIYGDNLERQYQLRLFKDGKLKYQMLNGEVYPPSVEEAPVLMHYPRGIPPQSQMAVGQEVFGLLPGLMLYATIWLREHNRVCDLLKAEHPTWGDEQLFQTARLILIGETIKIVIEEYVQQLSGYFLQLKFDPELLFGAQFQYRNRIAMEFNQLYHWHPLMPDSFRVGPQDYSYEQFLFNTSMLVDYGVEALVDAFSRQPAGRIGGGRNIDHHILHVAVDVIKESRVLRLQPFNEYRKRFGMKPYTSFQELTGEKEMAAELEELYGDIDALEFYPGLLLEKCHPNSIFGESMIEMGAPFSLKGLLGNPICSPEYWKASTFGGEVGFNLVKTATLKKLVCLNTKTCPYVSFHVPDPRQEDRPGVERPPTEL
Outline: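 Ram seminal vesicle COX, purified, was incubated 2.0 min at 37° C with 100 μM arachidonic acid with or without test compounds. Reactions stopped with TCA; activity read as absorbance at 530 nm.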

[2] = system: HT-29 human colon carcinoma cells; assay: Apoptosis by morphology (acridine orange/ethidium bromide, condensed chromatin); format: cell-based; conditions: HT-29 cells
[3] = system: SW-480 colon adenocarcinoma cells; assay: Apoptosis by DNA fragmentation (Cell Death Detection ELISA plus); format: cell-based, human; conditions: SW-480 cells, 48 hrs; for EC50: by software or estimated from effective concentration range; for DNA Fragmentation FS (100 μM): fold stimulation FS=ODmax/ODveh

| IC50 [1] [nM] | COX I % Inhibition (100 μM) (COX I) [%] | COX I % Inhibition (values marked *) (COX I; values marked *: 1000 μM test compound) | SMILES | Morphology % Apoptotic Cells (1 μM) [2] [%] | EC50 [3] [nM] | DNA Fragmentation FS (100 μM) [3] |
| --- | --- | --- | --- | --- | --- | --- |
| 2250 |  | <25* % | COc1cc(/C=C2/C(C)=C(CC(=O)NCc3c(F)c(F)c(F)c(F)c3F)c3cc(F)ccc32)cc(OC)c1OC [Example 51, (Z)-5-fluoro-2-methyl-1-(3,4,5-trimethoxybenzylidene)-3-(N-pentafluorobenzyl)-idenylacetamlde] | 40 | > 10000 | <2 |
| 260 | <25 |  | COc1ccc(/C=C2/C(C)=C(CC(=O)NCc3ccccc3)c3cc(F)ccc32)c(OC)c1OC [Example 57, (Z)-5-fluoro-2-methyl-1-(2,3,4-trimethoxybenzylidene)-3-(N-benzyl)-indenylacetamide] | 73 | 300 | <2 |
| 980 | <25 |  | COc1cc(OC)c(OC)cc1/C=C1/C(C)=C(CC(=O)NCc2ccccc2)c2cc(F)ccc21 [Example 58, (Z)-5-fluoro-2-methyl-1-(2,4,5-trimethoxybenzylidene)-3-(N-benzyl)-indenylacetamide] | 52 | 700 | 2.5 |

| SMILES | IC50 [1] [nM] | COX I % Inhibition (100 μM) (COX I) [%] | COX I % Inhibition (values marked *) (COX I; values marked *: 1000 μM test compound) | Morphology % Apoptotic Cells (1 μM) [2] [%] | EC50 [3] [nM] | DNA Fragmentation FS (100 μM) [3] |
| --- | --- | --- | --- | --- | --- | --- |
| COc1cc(/C=C2/C(C)=C(CC(=O)NCc3ccccn3)c3cc(F)ccc32)cc(OC)c1OC [Example 48] | 500 | <25 |  | 63 | 500 | 2.5 |
